From patent US10676467B2 (Washington University, priority 2017, dated 2020)
Several values for one entry are separate records, joined by “and”; a condition that tells them apart may be missing. Equal entries are not always repeated. Entries after “also recorded” stand apart in the source; their conditions may differ.

Key:
S1P1 [1] = biological target: T1, S1P1 (Rattus norvegicus (Rat), UniProt P48303); experiment: In vitro autoradiography of [18F]12a in rat brain slices, SEW2871 blocking; type: binding; conditions: rat brain sections, ~6 nM tracer, 10 μM SEW2871, 60 min RT
T1 sequence (P48303 whole entry): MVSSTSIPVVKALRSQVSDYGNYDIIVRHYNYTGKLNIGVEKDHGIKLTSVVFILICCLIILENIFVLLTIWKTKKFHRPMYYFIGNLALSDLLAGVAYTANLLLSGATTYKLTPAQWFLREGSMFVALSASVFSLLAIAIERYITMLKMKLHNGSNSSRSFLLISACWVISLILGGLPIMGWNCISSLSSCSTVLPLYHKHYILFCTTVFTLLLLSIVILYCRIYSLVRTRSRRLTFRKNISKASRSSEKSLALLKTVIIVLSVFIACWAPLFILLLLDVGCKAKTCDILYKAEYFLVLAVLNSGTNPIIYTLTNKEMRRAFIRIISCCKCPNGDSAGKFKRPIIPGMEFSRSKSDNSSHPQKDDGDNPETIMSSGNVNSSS
Method: Adult female Lewis rats (n=2, 100-125 g, Charles River) were used to perform the autoradiography study. The rats (n=2) was euthanized and the brains were collected and cut into 20 μm sequential sections using a Microm cryotome and mounted on glass slides. […] Following the incubation, the brain sections were washed and exposed to the Storage Phosphor Screen in an imaging cassette overnight in −20° C. at dark for 12 h. The distribution of radioactivity was visualized by a Fuji Bio-Imaging Analyzer FLA-7000 (Fuji Photo Film, Tokyo, Japan). Photo-stimulated luminescence (PSL) from the brain slices was quantified using Multi Gauge v3.0 software (Fuji Photo Film Co., Tokyo, Japan). Data were background-corrected, and expressed as photo-stimulated luminescence signals per square millimeter (PSL/mm^2).

S1P1 [2] = biological target: T1, S1P1; experiment: MicroPET and tracer kinetic modeling in EAE rat model, lumbar spinal cord; type: in vivo; conditions: for 2TCM Vd / LoganAIF Vd: lumbar spinal cord, n = 3-4
Method: MicroPET scans were performed using an Inveon PET/CT system (Siemens Inc., Knoxville, Tenn.). […] Each rat was secured to a custom-designed acrylic bed equipped with a nosecone for gas anesthesia. PET/CT scans were conducted under 1.5-2% isoflurane anesthesia with the rat placed in transaxial position and centered with the T13 vertebral spine in the field of view. […] A list mode protocol was used with 60-min dynamic data acquisition.
PET image data was processed using filter back projection algorithm with attenuation and scatter corrections. The data were reconstructed per time frame employing an iterative reconstructional algorithm (three-dimensional ordered subset expectation maximization (3D-OSEM), maximum a posteriori (MAP)) and corrected for decay, random coincidences, scatter, and attenuation. […] Image data was analyzed using Inveon Research Workstation software IRW 4.2 (Siemens Inc., Knoxville, Tenn.). The regions of interest (ROI), the lumbar spinal cord and bilateral common carotid arteries, were drawn over the co-registered PET/CT images using the standard protocol published previously. Time-activity curves (TACs) were obtained and were expressed as % ID/g. A two-tailed t-test was used for the comparison of the tracer uptake in EAE rat lumbar spinal cord versus sham. A P value less than 0.05 was considered statistically significant. Time-activity curves were further analyzed using 2-tissue-compartment model (2TCM), as well as Logan graphical analysis, using the ROI over bilateral common carotid arteries for image-based arterial blood input function.

[3] = Ex vivo biodistribution in female Lewis rats; design: species or system rat; conditions: for Tissue uptake, Blood / Tissue uptake, Bone / Tissue uptake, Brain / Tissue uptake, Fat / Tissue uptake, Heart / Tissue uptake, Kidney / Tissue uptake, Liver / Tissue uptake, Lung / Tissue uptake, Muscle / Tissue uptake, Pancreas / Tissue uptake, Spleen / Tissue uptake, Thymus: n = 4
Description: Organs of blood, heart, lung, muscle, fat, pancreas, spleen, kidney, liver, thymus, brain, and bone were dissected and collected for counting. All the samples were counted with a dilution of the injectate on an automated well counter (Beckman Gamma 8000 well counter). Tissues were weighed and the uptake was reported as background and decay-corrected percent injected dose per gram (% ID/g).
The whole brains were quickly harvested and dissected into regions of cerebellum, brain stem, cortex, striatum, thalamus, and hippocampus, the remainder of the brain was also collected to determine the total brain uptake. Organs of blood, heart, lung, muscle, fat, pancreas, spleen, kidney, liver, thymus, and bone were also dissected and collected for counting. All the samples were counted with a dilution of the injectate on an automated well counter (Beckman Gamma 8000 well counter). Tissues were weighed and the uptake was reported as background and decay-corrected percent injected dose per gram (% ID/g).

[4] = Nonhuman primate (NHP) brain microPET scan; type: in vivo, macaques; conditions: normal NHP
Method: To examine if newly-synthesized S1P1 radioligands could cross the BBB of NHPs, two male macaques (9-10 kg) were studied with a microPET Focus 220 scanner (Concorde/CTI/Siemens Microsystems, Knoxville, Tenn.). The welfare of the animals conformed to the requirements of National Institutes of Health (NIH). This work was conducted at the Nonhuman Primate Facility of Washington University in St. Louis with approval from the IACUC. Animals were maintained in facilities with 12-hour dark and light cycles, given access to food and water ad libitum and provided a variety of psychologically enriching tasks to prevent inappropriate deprivation. Animals were scanned under anesthesia (induced with ketamine and glycopyrrolate and maintained with inhalation isoflurane). Core temperature was kept about 37° C. with a heated water blanket. The head was secured in a head holder with the brain in the center of the field of view.
PET scans were collected from O-120 min with the following time frames: 3×1 min, 4×2 min, 3×3 min and 20×5 min. Emission data were corrected for dead time, scatter and attenuation and then reconstructed to a final resolution of 2.0 mm full-width half maximum in all 3 dimensions at the center of the field of view. PET and MRI images were co-registered using automated image registration program (AIR). For quantitative analyses, three-dimensional ROI (the global brain) was identified on the MRI and transformed to the reconstructed PET images to obtain time-activity curves. Activity measures were standardized to body weight and the dose of radioactivity injected to yield standardized uptake value (SUV).

[5] = 5 min p.i., literature value; cited from earlier work

## OCCOCc1ccc(-c2noc(-c3ccc(OCC[18F])c(C(F)(F)F)c3)n2)cc1 [[^18F]12a]
S1P1 [1]
  Reduction of radioactivity by SEW2871 blocking: ~30%
S1P1 [2]; EAE and sham rats
  Visualization of rat lumbar spinal cord by microPET: clear visualization of lumbar spinal cord
S1P1 [2]; EAE rats
  2TCM Vd: 2.18 ± 0.20 mL/g
  LoganAIF Vd: 2.18 ± 0.20 mL/g
S1P1 [2]; EAE rats, summed SUV values 10-60 min post injection, n=3-4
  Tracer uptake in lumbar spinal cord, EAE: 1.42±0.14 SUV
S1P1 [2]; Sham rats
  2TCM Vd: 1.80 ± 0.20 mL/g
  LoganAIF Vd: 1.77 ± 0.24 mL/g
S1P1 [2]; microPET, 10-60 min post injection
  Increase of tracer uptake in EAE rat lumbar spinal cord compared with shams: 29.5%
S1P1 [2]; sham rats, 10-60 min post injection
  Averaged tracer uptake in sham rat spinal cord: 1.0-1.1
S1P1 [2]; sham rats, summed SUV values 10-60 min post injection, n=3-4
  Tracer uptake in lumbar spinal cord, sham: 1.10±0.06 SUV
[3]; 5 min p.i.
  Tissue uptake, Blood: 0.36 % ID/g and 0.36 ± 0.04 % ID/g
  Tissue uptake, Bone: 0.40 ± 0.04 % ID/g
  Tissue uptake, Brain: 1.31 % ID/g and 1.31 ± 0.06 % ID/g
  Tissue uptake, Fat: 0.24 % ID/g and 0.24 ± 0.03 % ID/g
  Tissue uptake, Heart: 1.16 % ID/g and 1.16 ± 0.01 % ID/g
  Tissue uptake, Kidney: 2.14 % ID/g and 2.14 ± 0.14 % ID/g
  Tissue uptake, Liver: 4.87 % ID/g and 4.87 ± 0.27 % ID/g
  Tissue uptake, Lung: 1.31 % ID/g and 1.31 ± 0.01 % ID/g
  Tissue uptake, Muscle: 0.28 % ID/g and 0.28 ± 0.02 % ID/g
  Tissue uptake, Pancreas: 2.19 % ID/g and 2.19 ± 0.04 % ID/g
  Tissue uptake, Spleen: 1.14 % ID/g and 1.14 ± 0.10 % ID/g
  Tissue uptake, Thymus: 0.79 % ID/g and 0.79 ± 0.12 % ID/g
[3]; 30 min p.i.
  Tissue uptake, Blood: 0.51 ± 0.01 % ID/g
  Tissue uptake, Bone: 0.34 ± 0.02 % ID/g
  Tissue uptake, Brain: 1.34 ± 0.08 % ID/g
  Tissue uptake, Fat: 1.63 ± 0.36 % ID/g
  Tissue uptake, Heart: 1.01 ± 0.08 % ID/g
  Tissue uptake, Kidney: 1.43 % ID/g and 1.43 ± 0.08 % ID/g
  Tissue uptake, Liver: 3.58 % ID/g and 3.58 ± 0.28 % ID/g
  Tissue uptake, Lung: 1.20 ± 0.06 % ID/g
  Tissue uptake, Muscle: 0.54 ± 0.01 % ID/g
  Tissue uptake, Pancreas: 1.52 % ID/g and 1.52 ± 0.04 % ID/g
  Tissue uptake, Spleen: 0.79 % ID/g and 0.79 ± 0.06 % ID/g
  Tissue uptake, Thymus: 0.68 ± 0.06 % ID/g
[3]; 60 min p.i.
  Tissue uptake, Blood: 0.57 ± 0.03 % ID/g
  Tissue uptake, Bone: 0.34 ± 0.01 % ID/g
  Tissue uptake, Brain: 1.13 ± 0.05 % ID/g
  Tissue uptake, Fat: 1.50 ± 0.08 % ID/g
  Tissue uptake, Heart: 0.85 ± 0.04 % ID/g
  Tissue uptake, Kidney: 1.18 ± 0.04 % ID/g
  Tissue uptake, Liver: 3.32 ± 0.33 % ID/g
  Tissue uptake, Lung: 1.01 ± 0.04 % ID/g
  Tissue uptake, Muscle: 0.49 ± 0.03 % ID/g
  Tissue uptake, Pancreas: 1.21 ± 0.10 % ID/g
  Tissue uptake, Spleen: 0.65 ± 0.02 % ID/g
  Tissue uptake, Thymus: 0.58 ± 0.04 % ID/g
[3]; 120 min p.i.
  Tissue uptake, Blood: 0.66 ± 0.04 % ID/g
  Tissue uptake, Bone: 0.42 ± 0.02 % ID/g
  Tissue uptake, Brain: 0.87 ± 0.04 % ID/g
  Tissue uptake, Fat: 1.91 ± 0.19 % ID/g
  Tissue uptake, Heart: 0.74 ± 0.03 % ID/g
  Tissue uptake, Kidney: 1.01 ± 0.04 % ID/g
  Tissue uptake, Liver: 3.23 ± 0.10 % ID/g
  Tissue uptake, Lung: 0.87 ± 0.02 % ID/g
  Tissue uptake, Muscle: 0.42 ± 0.01 % ID/g
  Tissue uptake, Pancreas: 0.98 ± 0.05 % ID/g
  Tissue uptake, Spleen: 0.55 ± 0.03 % ID/g
  Tissue uptake, Thymus: 0.51 ± 0.05 % ID/g
[3]; bone radioactivity unchanged
  Defluorination in vivo (bone uptake 5 to 120 min): no metabolic defluorination in vivo
[4]; microPET
  Max SUV value in total brain: ~2.9 SUV
[4]; microPET, listed as 18F-TZ4877
  Blood-brain barrier crossing, NHP brain: able to cross the blood brain barrier; also recorded: able to cross the BBB
[4]; post injection
  Time to max SUV in total brain: ~5 min

## O=C(O)C1CN(Cc2ccc(-c3noc(-c4ccc(OCC[18F])c(C(F)(F)F)c4)n3)cc2)C1 [[^18F]4]
[5]
  Brain uptake of previous radiotracer: 0.49 % ID/g
